Experimental data reported in ChEMBL document CHEMBL1150801, “Efficacy of fluoroquinolones against Leptospira interrogans in a hamster model” (Antimicrob Agents Chemother, 2007).
Calls of active or inactive are those of the source. The calls are words filed in the database; no cut-off is given here.

Key:
[1] = test system: Leptospira interrogans serovar Portlandvere; assay: Antimicrobial activity against Leptospira interrogans serovar Portlandvere infected golden Syrian hamster model of acute lethal leptospirosis assessed as survival at 50 mg/kg/day, ip once daily for 5 days administered 2 day after infection; format: functional; conditions: route intraperitoneal
[2] = test system: Leptospira interrogans serovar Portlandvere; assay: Antimicrobial activity against Leptospira interrogans serovar Portlandvere infected golden Syrian hamster model of acute lethal leptospirosis assessed as survival at 25 mg/kg/day, ip once daily for 5 days administered 2 day after infection; format: functional; conditions: route intraperitoneal
[3] = test system: Leptospira interrogans serovar Portlandvere; assay: Antimicrobial activity against Leptospira interrogans serovar Portlandvere infected golden Syrian hamster model of acute lethal leptospirosis assessed as survival at 5 mg/kg/day, ip once daily for 5 days administered 2 day after infection; format: functional; conditions: for survival at 5 mg/kg/day: route intraperitoneal
Syrian golden hamster = assay: Toxicity against Leptospira interrogans serovar Portlandvere infected golden Syrian hamster model of acute lethal leptospirosis assessed as induction of diarrhea at 50 mg/kg/day, ip once daily for 5 days administered 2 day after infection; format: organism-based, Mesocricetus auratus; design: route intraperitoneal; conditions: in vivo

SMILES | survival at 50 mg/kg/day [1] | survival at 25 mg/kg/day [2] | survival at 5 mg/kg/day [3] | Activity (Syrian golden hamster) | Activity [3]
COc1c(N2CCNC(C)C2)c(F)cc2c(=O)c(C(=O)O)cn(C3CC3)c12 (stereo unspecified) [GATIFLOXACIN] | 60% | 100% | 90% | Toxic | –
O=C(O)c1cn(C2CC2)c2cc(N3CCNCC3)c(F)cc2c1=O [CIPROFLOXACIN] | 90% | 60% | – | – | Active
C[C@H]1COc2c(N3CCN(C)CC3)c(F)cc3c(=O)c(C(=O)O)cn1c23 [LEVOFLOXACIN] | 95% | 95% | 40% | – | –
C[C@H]1c2cccc(O)c2C(=O)C2=C(O)[C@]3(O)C(=O)C(C(N)=O)=C(O)[C@@H](N(C)C)[C@@H]3[C@@H](O)[C@@H]21 | – | – | – | – | Active
